Where a name gives a salt, the structure may show the parent alone.

Here are results for 49 compounds from publication PMC6627609, “Targeting Quorum Sensing: High-Throughput Screening to Identify Novel LsrK Inhibitors” (International Journal of Molecular Sciences, 2019).

The target in one experiment is LsrK (Salmonella typhimurium, UniProt Q8ZKQ6). The experiment is described as follows: biochemical.
LsrK, sequence (Q8ZKQ6 whole entry): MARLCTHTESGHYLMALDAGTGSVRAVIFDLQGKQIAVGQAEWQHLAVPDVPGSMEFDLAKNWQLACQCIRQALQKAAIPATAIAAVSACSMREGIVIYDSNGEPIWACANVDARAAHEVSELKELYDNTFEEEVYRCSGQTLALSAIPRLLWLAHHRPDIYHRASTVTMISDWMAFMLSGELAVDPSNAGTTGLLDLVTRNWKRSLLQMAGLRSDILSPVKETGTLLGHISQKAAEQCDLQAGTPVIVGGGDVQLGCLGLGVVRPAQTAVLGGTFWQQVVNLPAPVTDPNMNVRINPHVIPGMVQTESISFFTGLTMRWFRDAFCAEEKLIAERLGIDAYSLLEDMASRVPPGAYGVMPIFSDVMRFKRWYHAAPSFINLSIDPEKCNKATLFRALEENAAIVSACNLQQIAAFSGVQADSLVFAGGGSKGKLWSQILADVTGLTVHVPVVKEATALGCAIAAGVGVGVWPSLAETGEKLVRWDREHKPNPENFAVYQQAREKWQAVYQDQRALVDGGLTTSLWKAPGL
Settings: not given
The class given is biochemical, S. typhimurium.
Take `CC(C)c1ccc2c(c1)CC[C@H]1[C@](C)(C(N)=O)CCC[C@]21C` [DEHYDROABIETAMIDE]: the inhibition at 50 µM was determined as 2%.
The same measure, in the same setting: the result for `C[C@H](CCC(=O)O)[C@H]1CC[C@H]2[C@@H]3C(=O)C[C@@H]4CC(=O)CC[C@]4(C)[C@H]3CC(=O)[C@]12C` [DEHYDROCHOLIC ACID] reads 4%; that for `C=C(C)[C@H]1Cc2c(ccc3c(=O)c4c(oc23)COc2cc(OC)c(OC)cc2-4)O1` [DEHYDROROTENONE], 1%.
On to `COc1ccc2c(c1)OCc1c-2oc2cc(OC)ccc12` [DEHYDROVARIABILIN], for which the inhibition at 50 µM is 1%.
Still for that read-out and setting: the result for `CN(C)[C@@H]1C(O)=C(C(N)=O)C(=O)[C@@]2(O)C(O)=C3C(=O)c4c(O)ccc(Cl)c4[C@@H](O)[C@H]3C[C@@H]12` [DEMECLOCYCLINE HYDROCHLORIDE] reads 109%.
Take `CC[N+](CC)(CC(=O)Nc1c(C)cccc1C)Cc1ccccc1` [DENATONIUM BENZOATE]: the inhibition at 50 µM is 1%.
On the same count and under the same terms, the result for `Nc1ncnc2c1ncn2[C@H]1C[C@H](O)[C@@H](CO)O1` [DEOXYADENOSINE] reads 3%; that for `COc1ccc(-c2cc(C(F)F)nn2-c2ccc(S(N)(=O)=O)cc2)cc1F` [DERACOXIB], 2%.
The same measure, in the same setting: the result for `CC1(C)O[C@@H]2C[C@H]3[C@@H]4CCC5=CC(=O)C=C[C@]5(C)[C@H]4[C@@H](O)C[C@]3(C)[C@]2(C(=O)CO)O1` [DESONIDE] reads 0%; that for `CC(=O)OCC(=O)[C@H]1CC[C@H]2[C@@H]3CCC4=CC(=O)CC[C@]4(C)[C@H]3CC[C@]12C` [DESOXYCORTICOSTERONE ACETATE], 1%; that for `c1ccc2c(c1)CN1CCCC1=N2` [DESOXYPEGANINE HYDROCHLORIDE], 0%.
`CC(=O)OCC(=O)[C@@]1(O)[C@H](C)C[C@H]2[C@@H]3CCC4=CC(=O)C=C[C@]4(C)[C@@]3(F)[C@@H](O)C[C@@]21C` [DEXAMETHASONE ACETATE]: the inhibition at 50 µM was 0%.
Same read-out and setting: the result for `NC[C@@H]1CC[C@@H](N)[C@@H](O[C@H]2[C@H](O)[C@@H](O[C@H]3O[C@H](CO)[C@@H](O)[C@H](N)[C@H]3O)[C@H](N)C[C@@H]2N)O1` [DIBEKACIN] reads 0%; that for `c1ccc2c(c1)sc1ccccc12` [DIBENZOTHIOPHENE], 0%; that for `CCCCOC(=O)c1ccccc1C(=O)OCCCC` [DIBUTYL PHTHALATE], 0%.
The same measure, in the same setting: under `Oc1ccc(Cl)cc1Cc1cc(Cl)ccc1O` [DICHLOROPHENE] stands 1%; under `Cc1onc(-c2c(Cl)cccc2Cl)c1C(=O)N[C@@H]1C(=O)N2[C@@H]1SC(C)(C)[C@@H]2C(=O)O` [DICLOXACILLIN SODIUM], 0%.
Take `O=c1oc2ccccc2c(O)c1Cc1c(O)c2ccccc2oc1=O` [DICUMAROL]: the inhibition at 50 µM stood at 4%.
On the same count and under the same terms, under `C/C=C(/C(=C/C)c1ccc(O)cc1)c1ccc(O)cc1` [DIENESTROL] stands 2%.
As to `CCN(CC)C(=O)N1CCN(C)CC1` [DIETHYLCARBAMAZINE CITRATE], the inhibition at 50 µM was found to be 1%.
As for `O=C(O)c1cc(-c2ccc(F)cc2F)ccc1O` [DIFLUNISAL], the inhibition at 50 µM amounted to 5%.
Same read-out and setting: under `C[C@]12CC[C@H](O)C[C@H]1CC[C@@H]1[C@@H]2C[C@@H](O)[C@]2(C)[C@@H](C3=CC(=O)OC3)CC[C@]12O` [DIGOXIGENIN] stands 2%.
With `Cc1c(O)c(O)cc2c1CC=C1[C@@]2(C)CC[C@@]2(C)[C@@H]3C[C@](C)(C(=O)O)CC[C@]3(C)CC[C@]12C` [DIHYDROCELASTROL], inhibition was half-maximal at 21 µM (IC50) and the inhibition at 50 µM was 105%.
For `Nc1nc2c(c(=O)[nH]1)N=C(CNc1ccc(C(=O)N[C@@H](CCC(=O)O)C(=O)O)cc1)CN2` [DIHYDROFOLIC ACID], the inhibition at 50 µM amounted to 49%.
Still for that read-out and setting: under `CCCCCC1C(=O)CCC1CC(=O)O` (centres unmarked) [DIHYDROJASMONIC ACID] stands 1%; under `Cc1cccc2c3c(ccc12)C1=C(C(=O)C3=O)[C@@H](C)CO1` [DIHYDROTANSHINONE I], 115%.
As for `CN(C(=O)C(Cl)Cl)c1ccc(OC(=O)c2ccco2)cc1` [DILOXANIDE FUROATE], the inhibition at 50 µM is 4%.
Still for that read-out and setting: under `OCC(S)CS` (centres unmarked) [DIMERCAPROL] stands 125%; under `OCCN(CCO)c1nc(N2CCCCC2)c2nc(N(CCO)CCO)nc(N3CCCCC3)c2n1` [DIPYRIDAMOLE], 2%.
As for `CC(CCc1ccc(O)cc1)NCCc1ccc(O)c(O)c1` (centres unmarked) [DOBUTAMINE HYDROCHLORIDE], the inhibition at 50 µM was 3%.
For `COc1cc2c(cc1OC)C(=O)C(CC1CCN(Cc3ccccc3)CC1)C2` (centres unmarked) [DONEPEZIL HYDROCHLORIDE], the inhibition at 50 µM came to 2%.
With `NCCc1ccc(O)c(O)c1` [DOPAMINE HYDROCHLORIDE], the inhibition at 50 µM is 2%.
On to `COc1cc2nc(N3CCN(C(=O)C4COc5ccccc5O4)CC3)nc(N)c2cc1OC` (centres unmarked) [DOXAZOSIN MESYLATE], for which the inhibition at 50 µM is 0%.
On the same count and under the same terms, under `C[C@H]1O[C@@H](n2cc(F)c(=O)[nH]c2=O)[C@H](O)[C@@H]1O` [DOXIFLURIDINE] stands 1%.
For `C[C@H]1c2cccc(O)c2C(=O)C2=C(O)[C@]3(O)C(=O)C(C(N)=O)=C(O)[C@@H](N(C)C)[C@@H]3[C@@H](O)[C@@H]21` [DOXYCYCLINE HYDROCHLORIDE], the inhibition at 50 µM came out at 106%.
Regarding `CCN(CC)CCOC(=O)C(c1ccccc1)C1CCCCC1` (centres unmarked) [DROFENINE HYDROCHLORIDE], the inhibition at 50 µM came to 0%.
On the same count and under the same terms, under `CNCC[C@H](Oc1cccc2ccccc12)c1cccs1` [DULOXETINE HYDROCHLORIDE] stands 1%; under `CCCCOc1ccc(C(=O)CCN2CCCCC2)cc1` [DYCLONINE HYDROCHLORIDE], 131%; under `Cn1c(=O)c2c(ncn2CC(O)CO)n(C)c1=O` (centres unmarked) [DYPHYLLINE], 1%.
Take `COc1cc(C)c(C(=O)Oc2cc(C)c(C(=O)O)c(O)c2C)c(OC)c1C` [D[…]]: the inhibition at 50 µM was found to be 35%.
The same measure, in the same setting: the result for `O=c1c2ccccc2[se]n1-c1ccccc1` [EBSELEN] reads 6%.
On the same count and under the same terms, the result for `CCc1cn([C@H]2C[C@H](O)[C@@H](CO)O2)c(=O)[nH]c1=O` [EDOXUDINE] reads 0%; that for `CC[N+](C)(C)c1cccc(O)c1` [EDROPHONIUM CHLORIDE], 0%; that for `O=c1oc2c(O)c(O)cc3c(=O)oc4c(O)c(O)cc1c4c23` [ELLAGIC ACID], 7%.

Staying with this experiment, now noted: 50 µM.
With `CC(=O)O[C@@H]1C[C@H]2C(C)(C)C(=O)C=C[C@]2(C)[C@H]2CC[C@]3(C)C(=CC(=O)O[C@H]3c3ccoc3)[C@@]21C` [DEOXYGEDUNIN], the “Inhibition (%)” value stood at 0.
In the case of `CC(=O)O[C@H]1C[C@@H](OC(C)=O)C(C)(C)[C@@H]2C[C@@H](OC(C)=O)[C@@]3(C)C4=CC(=O)O[C@@H](c5ccoc5)[C@]4(C)CC[C@@H]3[C@@]12C` [DEOXYKHIVORIN], the “Inhibition (%)” value was determined as 1.
Same read-out and setting: the result for `C=C[C@@]1(C)CC(=O)[C@@]2(O)[C@](C)(O1)[C@@H](O)[C@@H](O)C1C(C)(C)CC[C@H](O)[C@@]12C` (some centres unmarked) [DESACETYLCOLFORSIN] reads 1; that for `CC(=O)Oc1cccc2c1C(=O)c1c(OC(C)=O)cc(C(=O)O)cc1C2=O` [DIACERIN], 0.
For `Cc1c(N(C)CS(=O)(=O)[O-])c(=O)n(-c2ccccc2)n1C.[Na+]` [DIPYRONE], the “Inhibition (%)” value is given as 2.

What is called inhibition is the relative decrease from the control value, in per cent. By IC50 is commonly meant the concentration that inhibits the measured activity by half. A high value points to weaker potency.
